Consider one molecule from article PMC8198871, “Suppression of Breast Cancer by Small Molecules That Block the Prolactin Receptor” (Cancers, 2021).

By Kd is commonly meant the constant that tells how readily two partners part at equilibrium. Read a low Kd as a tighter complex. A word on the IC50: it is the concentration that inhibits the measured activity by half. Read a low IC50 as higher potency.

Each structure is given as a SMILES string.

Assay [1] deals with T1, prolactin receptor (PRLR) (Homo sapiens, UniProt P16471).
T1 construct: extracellular domain (ECD), purified recombinant
T1 sequence (P16471 25-234 limits assumed): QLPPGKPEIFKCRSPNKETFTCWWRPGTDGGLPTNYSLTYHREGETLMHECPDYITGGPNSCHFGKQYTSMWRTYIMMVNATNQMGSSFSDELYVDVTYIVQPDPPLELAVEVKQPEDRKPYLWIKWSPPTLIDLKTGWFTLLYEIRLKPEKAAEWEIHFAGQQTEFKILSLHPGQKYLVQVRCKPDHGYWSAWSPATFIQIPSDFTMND
The assay can be described thus: microscale thermophoresis; confirmed by isothermal titration calorimetry. The class given is binding.

Assay [2] addresses T2, hypocretin receptor 1 (HCRTR1) (Homo sapiens, UniProt O43613).
T2 sequence (O43613 1-425): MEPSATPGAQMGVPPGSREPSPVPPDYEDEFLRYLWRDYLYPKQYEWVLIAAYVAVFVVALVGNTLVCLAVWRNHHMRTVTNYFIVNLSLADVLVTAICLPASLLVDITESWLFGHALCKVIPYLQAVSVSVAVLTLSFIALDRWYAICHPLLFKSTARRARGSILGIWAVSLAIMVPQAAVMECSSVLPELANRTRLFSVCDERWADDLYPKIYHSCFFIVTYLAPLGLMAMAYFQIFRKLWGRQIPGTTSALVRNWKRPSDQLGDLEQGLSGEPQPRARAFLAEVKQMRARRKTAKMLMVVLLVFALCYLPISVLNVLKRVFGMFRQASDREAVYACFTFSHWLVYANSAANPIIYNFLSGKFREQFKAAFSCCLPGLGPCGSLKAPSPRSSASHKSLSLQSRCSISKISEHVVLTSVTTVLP
Nature of the assay: DiscoverX GPCR selectivity panel, multiple doses. It is filed as cell-based.

The target in assay [3] is serotonin receptor 2A (HTR2A) (Homo sapiens, UniProt P28223). The assay can be described thus: DiscoverX GPCR selectivity panel, multiple doses. The class given is cell-based.
serotonin receptor 2A (HTR2A), sequence (P28223 whole entry): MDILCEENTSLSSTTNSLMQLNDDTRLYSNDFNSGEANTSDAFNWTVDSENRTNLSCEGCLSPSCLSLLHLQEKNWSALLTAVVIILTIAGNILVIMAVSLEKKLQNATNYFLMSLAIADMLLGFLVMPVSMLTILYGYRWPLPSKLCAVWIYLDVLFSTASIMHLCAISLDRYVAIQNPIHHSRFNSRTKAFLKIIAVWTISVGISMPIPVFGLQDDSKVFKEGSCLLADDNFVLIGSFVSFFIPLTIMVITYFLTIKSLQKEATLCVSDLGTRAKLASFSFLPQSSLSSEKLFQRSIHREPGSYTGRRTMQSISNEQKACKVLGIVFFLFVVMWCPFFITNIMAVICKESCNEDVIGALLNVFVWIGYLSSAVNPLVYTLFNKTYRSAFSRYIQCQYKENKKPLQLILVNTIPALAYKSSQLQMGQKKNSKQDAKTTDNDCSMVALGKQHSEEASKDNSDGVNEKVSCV
Assay [4] addresses T3, serotonin receptor 2C (HTR2C) (Homo sapiens, UniProt P28335).
T3 sequence (P28335 33-458): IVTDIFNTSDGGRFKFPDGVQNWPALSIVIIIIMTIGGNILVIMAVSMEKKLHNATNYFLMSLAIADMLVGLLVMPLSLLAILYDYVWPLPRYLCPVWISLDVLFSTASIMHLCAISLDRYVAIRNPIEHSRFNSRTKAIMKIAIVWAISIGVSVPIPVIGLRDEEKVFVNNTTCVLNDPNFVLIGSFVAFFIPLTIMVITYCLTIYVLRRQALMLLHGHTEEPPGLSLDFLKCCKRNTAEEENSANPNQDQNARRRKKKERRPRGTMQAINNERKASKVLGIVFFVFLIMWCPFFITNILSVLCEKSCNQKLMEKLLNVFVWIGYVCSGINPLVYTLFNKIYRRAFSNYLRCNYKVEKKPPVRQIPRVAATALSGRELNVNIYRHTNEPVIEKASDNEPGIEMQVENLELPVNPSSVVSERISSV
Nature of the assay: DiscoverX GPCR selectivity panel, multiple doses. It is filed as cell-based.

`CCN(CC)c1ccc(/C=N/NC(=O)c2c(Cl)cnn2C)c(O)c1` [SMI-6] registered a Kd in assay [1] of 3.31 µM. In addition, the IC50 is 6.71 µM in assay [2], 2.39 µM in assay [3] and 3.48 µM in assay [4].
